Measured values reported in EPA's ToxRefDB 2.

Tests used:
rat [1] = conditions: Prenatal developmental toxicity study, sprague dawley, Oral, Gavage/Intubation, dose end: 15 GD
mouse [2] = conditions: Subchronic oral toxicity in rodents, cd1, Feed, dose end: 90 day
rat [3] = conditions: Multigenerational reproductive toxicity study, sprague dawley, Oral, Feed, dose end: 2 generation
dog [4] = conditions: Subchronic oral toxicity in nonrodent, beagle, Feed, dose end: 28 day, group: systemic
rat [5] = conditions: Subchronic oral toxicity in rodents, sprague dawley, Feed, dose end: 13 week, group: systemic
rat [6] = conditions: Subchronic oral toxicity in rodents, sprague dawley, Feed, dose end: 13 week, group: systemic, systemic / in life observation / body weight / body weight + systemic / in life observation / body weight / body weight gain + systemic / in…
mouse [7] = conditions: Carcinogenicity, cd1, Oral, Feed, dose end: 78 week, group: systemic
dog [8] = conditions: Subchronic oral toxicity in nonrodent, beagle, Feed, dose end: 90 day, group: systemic
rat [9] = conditions: Combined chronic toxicity/carcinogenicity, other, Oral, Feed, dose end: 24 month, group: systemic
rat [10] = conditions: Subchronic oral toxicity in rodents, sprague dawley, Feed, dose end: 90 day, group: systemic
dog [11] = conditions: Chronic toxicity, beagle, Oral, Feed, dose end: 52 week, group: systemic
[12] = group: developmental, developmental / developmental malformation / bone / short
[13] = group: maternal, systemic / in life observation / body weight / body weight + systemic / in life observation / body weight / body weight gain + systemic / in…
[14] = group: cholinesterase, cholinesterase / cholinesterase / cholinesterase / cholinesterase (che)
[15] = group: systemic, systemic / clinical chemistry / glucose / glucose + systemic / in life observation / body weight / body weight + systemic / in life …
[16] = group: offspring, developmental / developmental landmark / preputial separation / preputial separation + systemic / in life observation / body weight / litter…
[17] = group: parental, systemic / in life observation / body weight / body weight + systemic / in life observation / body weight / body weight gain + systemic / in…
[18] = group: reproductive, reproductive / offspring survival early / litter size / litter size
[19] = systemic / in life observation / body weight / body weight gain
[20] = systemic / in life observation / body weight / body weight gain + systemic / in life observation / food consumption / food consumption + …
[21] = systemic / pathology microscopic / kidney / inclusion body intranuclear
[22] = systemic / pathology microscopic / kidney / inclusion body intranuclear + systemic / in life observation / body weight / body weight + …
[23] = systemic / in life observation / body weight / body weight + systemic / in life observation / body weight / body weight gain + systemic / …
[24] = systemic / pathology microscopic / bone marrow / hyperplasia
[25] = systemic / in life observation / body weight / body weight gain + systemic / in life observation / body weight / body weight + systemic / in…
[26] = systemic / in life observation / clinical signs / respiration (rales)
[27] = systemic / pathology microscopic / spleen / pigmentation
[28] = systemic / pathology microscopic / spleen / pigmentation + systemic / in life observation / body weight / body weight + systemic / in life …
[29] = systemic / in life observation / body weight / body weight + systemic / in life observation / body weight / body weight gain + systemic / in…

CC(=NC#N)N(C)Cc1ccc(Cl)nc1 [Acetamiprid]
LEL (rat [1]; [12]): 50 mg/kg/day | LOAEL (rat [1]; [12]): 50 mg/kg/day | NEL (rat [1]; [12]): 16 mg/kg/day | NOAEL (rat [1]; [12]): 16 mg/kg/day | LEL (rat [1]; [13]): 50 mg/kg/day | LOAEL (rat [1]; [13]): 50 mg/kg/day | NEL (rat [1]; [13]): 16 mg/kg/day | NOAEL (rat [1]; [13]): 16 mg/kg/day | LEL (mouse [2]; [14]): 430 mg/kg/day | LOAEL (mouse [2]; [14]): > 430 mg/kg/day | NEL (mouse [2]; [14]): 211 mg/kg/day | NOAEL (mouse [2]; [14]): ≥ 430 mg/kg/day | LEL (mouse [2]; [15]): 211 mg/kg/day | LOAEL (mouse [2]; [15]): 211 mg/kg/day | NEL (mouse [2]; [15]): 106 mg/kg/day | NOAEL (mouse [2]; [15]): 106 mg/kg/day | LEL (rat [3]; group: offspring, developmental / developmental landmark / preputial separation / preputial separation): 17.9 mg/kg/day | LOAEL (rat [3]; [16]): 51 mg/kg/day | NEL (rat [3]; [16]): 6.5 mg/kg/day | NOAEL (rat [3]; [16]): 17.9 mg/kg/day | LOAEL (rat [3]; [17]): 51 mg/kg/day | NEL (rat [3]; [17]): 6.5 mg/kg/day | NOAEL (rat [3]; [17]): 17.9 mg/kg/day | LEL (rat [3]; group: parental, systemic / in life observation / body weight / body weight gain): 17.9 mg/kg/day | LEL (rat [3]; [18]): 51 mg/kg/day | LOAEL (rat [3]; [18]): 51 mg/kg/day | NEL (rat [3]; [18]): 17.9 mg/kg/day | NOAEL (rat [3]; [18]): 17.9 mg/kg/day | LEL (dog [4]; [19]): 28 mg/kg/day | LOAEL (dog [4]; [19]): 28 mg/kg/day | NEL (dog [4]; [20]): 16.7 mg/kg/day | NOAEL (dog [4]; [20]): 16.7 mg/kg/day | LEL (rat [5]; [21]): 250 mg/kg/day | LOAEL (rat [5]; [21]): 250 mg/kg/day | NEL (rat [5]; [22]): 48.9 mg/kg/day | NOAEL (rat [5]; [22]): 48.9 mg/kg/day | LEL (rat [6]): 50.8 mg/kg/day | LOAEL (rat [6]): 50.8 mg/kg/day | NEL (rat [6]): 12.4 mg/kg/day | NOAEL (rat [6]): 12.4 mg/kg/day | LOAEL (mouse [7]; [23]): 65.6 mg/kg/day | NOAEL (mouse [7]; [23]): 20.3 mg/kg/day | LEL (mouse [7]; [24]): 20.3 mg/kg/day | NEL (mouse [7]; [24]): < 20.3 mg/kg/day | LOAEL (dog [8]; [19]): 32 mg/kg/day | NEL (dog [8]; [25]): 14 mg/kg/day | NOAEL (dog [8]; [25]): 14 mg/kg/day | LEL (dog [8]; systemic / in life observation / body weight / body weight gain + systemic / in life observation / food consumption / food consumption): 32 mg/kg/day | LEL (rat [9]; [26]): 7.1 mg/kg/day | NEL (rat [9]; [26]): < 7.1 mg/kg/day | LOAEL (rat [9]; systemic / pathology microscopic / liver / vacuolization): 17.5 mg/kg/day | NOAEL (rat [9]; systemic / pathology microscopic / liver / vacuolization + systemic / in life observation / body weight / body weight + systemic / in life …): 7.1 mg/kg/day | LEL (rat [10]; [27]): 112 mg/kg/day | LOAEL (rat [10]; [27]): 112 mg/kg/day | NEL (rat [10]; [28]): 36.5 mg/kg/day | NOAEL (rat [10]; [28]): 36.5 mg/kg/day | LOAEL (dog [11]; systemic / in life observation / body weight / body weight + systemic / in life observation / body weight / body weight gain): 55 mg/kg/day | LEL (dog [11]; [29]): 55 mg/kg/day | NEL (dog [11]; [29]): 20 mg/kg/day | NOAEL (dog [11]; [29]): 20 mg/kg/day
